Results on 23 molecules are retold here after US12252488B2 (Nimbus Saturn, Inc., priority 2021, dated 2025).

Bounds are passed on as bounds.

The target of this experiment is T1, HPK1 (Homo sapiens, UniProt Q92918).
T1 construct: purchased Invitrogen
T1 sequence (Q92918 whole entry): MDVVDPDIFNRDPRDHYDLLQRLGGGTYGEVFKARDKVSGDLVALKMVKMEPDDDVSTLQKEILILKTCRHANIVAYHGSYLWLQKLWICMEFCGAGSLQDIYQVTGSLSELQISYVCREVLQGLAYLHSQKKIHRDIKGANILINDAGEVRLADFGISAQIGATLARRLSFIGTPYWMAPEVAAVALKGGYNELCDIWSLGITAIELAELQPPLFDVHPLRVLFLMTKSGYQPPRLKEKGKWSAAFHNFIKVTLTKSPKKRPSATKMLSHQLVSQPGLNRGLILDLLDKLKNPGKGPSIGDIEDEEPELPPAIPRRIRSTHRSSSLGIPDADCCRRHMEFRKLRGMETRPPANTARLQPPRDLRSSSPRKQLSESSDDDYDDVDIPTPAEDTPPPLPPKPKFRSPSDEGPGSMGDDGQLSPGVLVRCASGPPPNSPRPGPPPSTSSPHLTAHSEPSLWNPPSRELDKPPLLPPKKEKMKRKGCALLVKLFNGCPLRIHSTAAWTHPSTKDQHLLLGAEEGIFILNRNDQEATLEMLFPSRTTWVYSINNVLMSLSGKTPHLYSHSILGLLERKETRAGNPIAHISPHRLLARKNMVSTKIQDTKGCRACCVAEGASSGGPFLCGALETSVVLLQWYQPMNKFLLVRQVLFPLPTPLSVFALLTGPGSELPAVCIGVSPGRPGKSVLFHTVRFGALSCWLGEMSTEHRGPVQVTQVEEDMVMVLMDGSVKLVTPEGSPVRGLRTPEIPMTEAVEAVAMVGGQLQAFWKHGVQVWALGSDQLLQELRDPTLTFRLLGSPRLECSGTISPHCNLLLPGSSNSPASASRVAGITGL
As to the kind of experiment: HPK1 biochemical enzyme assay (microfluidic mobility shift assay). As to conditions: 1000 uM (1 mM) ATP; Caliper mobility shift; 1.5 nM HPK1; 30 min preincubation; read-out: HPK1 1000UMATP caliper IC50. The method in brief:
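Microfluidic mobility-shift readout with 1.5 nM HPK1 in pH 7.4 buffer; compounds (ten-point curves, top 3 μM final) preincubated 30 min with enzyme/substrate. Reaction started with 1 mM ATP and 1 μM substrate plus 5 mM MgCl2, run 60 min at RT. IC50 values binned into activity classes.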
For orientation: IC50 means the concentration at which inhibition is half-maximal. In the case of `O=c1[nH]ccc2nc(-c3cc(OC(F)(F)F)ccc3F)cc(Nc3ccc(N4CCC(O)CC4)cn3)c12` [I-106, 2-[2-fluoro-5-(trifluoro-methoxy)phenyl]-4-[[5-(4-hydroxy-1-piperidyl)-2-pyridyl]amino]-6H-1,6-naphthyridin-5-one], the IC50 is no more than 100 nM.
The same measure for `CC1CCCCN1C(=O)c1ccc(-c2cc(Nc3ccc(N4CCC(O)CC4)cn3)c3c(=O)[nH]ccc3n2)c(F)c1` (centres unmarked) [I-130, 2-[2-fluoro-4-(2-methyl-piperidine-1-carbonyl)phenyl]-4-[[5-(4-hydroxy-1-piperidyl)-2-pyridyl]amino]-6H-1,6-naphthyridin-5-one]: no more than 100 nM.
The same measure for `CC(C)c1cc(Nc2ccc(N3CCOCC3)cn2)c2c(=O)[nH]ccc2n1` [I-22, 2-isopropyl-4-[(5-morpholino-2-pyridyl)amino]-6H-1,6-naphthyridin-5-one]: no more than 100 nM; for `O=C(c1ccc(-c2cc(Nc3ccc(N4CCC5(CCOCC5)CC4)cn3)c3c(=O)[nH]ccc3n2)c(F)c1)N1CCCCC1` [I-148, 2-[2-fluoro-4-(piperidine-1-carbonyl)phenyl]-4-[[5-(3-oxa-9-azaspiro [5.5]undecan-9-yl)-2-pyridyl]amino]-6H-naphthyridin-5-one]: greater than 1000 nM.
The value for `COc1c(C(=O)N2CCCCC2)ccc(-c2cc(Nc3ccc(N4CCC(O)CC4)cn3)c3c(=O)[nH]ccc3n2)c1F` [I-166, 2-[2-fluoro-3-methoxy-4-(piperidine-1-carbonyl)phenyl]-4-[[5-(4-hydroxy-1-piperidyl)-2-pyridyl]amino]-6H-1,6-naphthyridin-5-one] was no more than 100 nM; that for `O=c1[nH]ccc2nc(-c3ccc4c(c3F)CCC4O)cc(Nc3ccc(N4CCC(O)CC4)cn3)c12` (centres unmarked) [I-203, 2-(4-fluoro-1-hydroxy-indan-5-yl)-4-[[5-(4-hydroxy-1-piperidyl)-2-pyridyl]amino]-6H-1,6-naphthyridin-5-one] was no more than 100 nM; that for `O=C(Nc1ccc(-c2cc(Nc3ccc(N4CCC(O)CC4)cn3)c3c(=O)[nH]ccc3n2)c(F)c1)C1CCCCC1` [I-111, N-[3-fluoro-4-[4-[[5-(4-hydroxy-1-piperidyl)-2-pyridyl]amino]-5-oxo-6H-1,6-naphthyridin-2-yl]phenyl] cyclohexane carboxamide] was greater than 1000 nM.
As for `CC(C)(C)c1ccc(F)c(-c2cc(Nc3ccc(N4CCC(O)CC4)cn3)c3c(=O)[nH]ccc3n2)c1` [I-96, 2-(5-tert-butyl-2-fluoro-phenyl)-4-[[5-(4-hydroxy-1-piperidyl)-2-pyridyl]amino]-6H-1,6-naphthyridin-5-one], the IC50 was 100 to 1000 nM.
With `CCNC(=O)c1ccc(Nc2cc(-c3c(F)cccc3F)nc3cc[nH]c(=O)c23)cc1` [I-4, 4-[[2-(2,6-difluoro-phenyl)-5-oxo-6H-1,6-naphthyridin-4-yl]amino]-N-ethyl-benzamide], the IC50 is no more than 100 nM.
The same measure for `COc1cc(-c2cc(Nc3ccc(N4CC(F)(F)C4)cn3)c3c(=O)[nH]ccc3n2)c(F)cc1C(=O)N1CCCCC1` [I-174, 4-[[5-(3,3-difluoro-azetidin-1-yl)-2-pyridyl]amino]-2-[2-fluoro-5-methoxy-4-(piperidine-1-carbonyl)phenyl]-6H-1,6-naphthyridin-5-one]: greater than 1000 nM; for `CC(C)c1ccc(F)c(-c2cc(Nc3ccc(N4CCN(C)CC4)cn3)c3c(=O)[nH]ccc3n2)c1` [I-109, 2-(2-fluoro-5-isopropyl-phenyl)-4-[[5-(4-methyl-piperazin-1-yl)-2-pyridyl]amino]-6H-1,6-naphthyridin-5-one]: no more than 100 nM; for `O=C(c1ccc(-c2cc(Nc3ccc(N4CCOCC4)cn3)c3c(=O)[nH]ccc3n2)c(F)c1)N1CCCCC1` [I-155, 2-[2-fluoro-4-(piperidine-1-carbonyl)phenyl]-4-[(5-morpholino-2-pyridyl)amino]-6H-1,6-naphthyridin-5-one]: greater than 1000 nM.
The same measure for `Cc1cc(-c2cc(Nc3ccc(N4CCNCC4)cn3)c3c(=O)[nH]ccc3n2)c(F)cc1NC(=O)C1CCCCC1` [I-197, N-[5-fluoro-2-methyl-4-[5-oxo-4-[(5-piperazin-1-yl-2-pyridyl)amino]-6H-1,6-naphthyridin-2-yl]phenyl] cyclohexane carboxamide]: 100 to 1000 nM.
The same measure for `CCNC(=O)c1ccc(Nc2nc(C(C)C)nc3cc[nH]c(=O)c23)cc1` [I-10, N-ethyl-4-[(2-isopropyl-5-oxo-6H-pyrido[4,3-d]pyrimidin-4-yl)amino]benzamide]: 100 to 1000 nM; for `O=C(Nc1ccc(-c2cc(Nc3ccc(N4CCC(O)CC4)cn3)c3c(=O)[nH]ccc3n2)c(F)c1)[C@@H]1C[C@H]2CC[C@@H]1C2` (single isomer, unassigned) [I-269]: 100 to 1000 nM; for `CN(C(=O)c1ccc(-c2cc(Nc3ccc(N4CCC(O)CC4)cn3)c3c(=O)[nH]ccc3n2)c(F)c1)C1CCCCC1` [I-143, N-cyclohexyl-3-fluoro-4-[4-[[5-(4-hydroxy-1-piperidyl)-2-pyridyl]amino]-5-oxo-6H-1,6-naphthyridin-2-yl]-N-methyl-benzamide]: greater than 1000 nM.
As to `COC(=O)c1ccc(-c2cc(Nc3ccc(N4CCC(O)CC4)cn3)c3c(=O)[nH]ccc3n2)c(F)c1` [I-125, Methyl 3-fluoro-4-[4-[[5-(4-hydroxy-1-piperidyl)-2-pyridyl]amino]-5-oxo-6H-1,6-naphthyridin-2-yl]benzoate], the IC50 is no more than 100 nM.
The value for `O=C(c1ccc(-c2cc(Nc3ccc(N4CCC(O)CC4)cn3)c3c(=O)[nH]ccc3n2)c(F)c1)N1CCC1` [I-126, 2-[4-(azetidine-1-carbonyl)-2-fluoro-phenyl]-4-[[5-(4-hydroxy-1-piperidyl)-2-pyridyl]amino]-6H-1,6-naphthyridin-5-one] was 100 to 1000 nM; that for `CN1CCN(c2ccc(Nc3cc(-c4ccc(NC(=O)C5CCCCC5)cc4F)nc4cc[nH]c(=O)c34)nc2)CC1` [I-184, N-[3-fluoro-4-[4-[[5-(4-methyl-piperazin-1-yl)-2-pyridyl]amino]-5-oxo-6H-1,6-naphthyridin-2-yl]phenyl] cyclohexane carboxamide] was greater than 1000 nM.
The same measure for `CC(C)Cc1cc(Nc2ccc(N3CCC(O)CC3)cn2)c2c(=O)[nH]ccc2n1` [I-28, 4-[[5-(4-hydroxy-1-piperidyl)-2-pyridyl]amino]-2-isobutyl-6H-1,6-naphthyridin-5-one]: 100 to 1000 nM; for `O=C(c1ccc(-c2cc(Nc3ccc(N4CCC(O)CC4)cn3)c3c(=O)[nH]ccc3n2)c(F)c1)N1CCCCC1CO` (centres unmarked) [I-141, 2-[2-fluoro-4-[2-(hydroxy-methyl)piperidine-1-carbonyl]phenyl]-4-[[5-(4-hydroxy-1-piperidyl)-2-pyridyl]amino]-6H-1,6-naphthyridin-5-one]: greater than 1000 nM.
The value for `CN(C(=O)C1(C)COC1)c1ccc(-c2cc(Nc3ccc(N4CCC(O)CC4)cn3)c3c(=O)[nH]ccc3n2)c(F)c1` [I-210, N-[3-fluoro-4-[4-[[5-(4-hydroxy-1-piperidyl)-2-pyridyl]amino]-5-oxo-6H-1,6-naphthyridin-2-yl]phenyl]-N,3-dimethyl-oxetane-3-carboxamide] was no more than 100 nM; that for `Cc1cccc(-c2cc(Nc3ccc(N4CCC(O)CC4)cn3)c3c(=O)[nH]ccc3n2)c1F` [I-68, 2-(2-fluoro-3-methyl-phenyl)-4-[[5-(4-hydroxy-1-piperidyl)-2-pyridyl]amino]-6H-1,6-naphthyridin-5-one] was 100 to 1000 nM.
